Data on 12 compounds can be found in ChEMBL document CHEMBL3045229, “Molluscicidal and insecticidal potential of monoterpenes on the white garden snail, Theba pisana (Muller) and the cotton leafworm, Spodoptera littoralis (Boisduval)” (2010).

What all share (format): functional
The subject of test [1] is Spodoptera littoralis. As to the kind of experiment: Contact insecticidal activity against cotton leafworm Spodoptera littoralis third-instar larvae exposed to 1 mg/larva compound application through dorsum of larvae followed by feeding on fresh castor bean leaves assessed as insect mortality after 24 hr. Conditions: for Activity: Skin of body.
Test [2] has as its system Spodoptera littoralis. As to the kind of experiment: Fumigant insecticidal activity against cotton leafworm Spodoptera littoralis third-instar larvae fed on fresh castor bean leaves assessed as insect mortality after 24 hr.
Test [3] concerns Theba pisana. As to the kind of experiment: Contact molluscicidal activity against Theba pisana (white garden snail ) exposed to compound throgh application to surface of snail body inside shell assessed as compound level per snail causing snail mortality after 24 hr.
The test system of test [4] is Theba pisana. As to the kind of experiment: Fumigant molluscicidal activity against Theba pisana (white garden snail) assessed as snail mortality after 24 hr.

Converted amounts (≈) assume the structure as drawn. The source made the active and inactive calls. No cut-off for these calls is given here.

For orientation: LC50 means the concentration that kills 50% of the test population. Take `C=C(C)[C@@H]1CC=C(C)CC1` [(-)-LIMONENE]: the result with Spodoptera littoralis [1] was Active. Also, the results for the 50% lethal concentration (LC50) with Spodoptera littoralis [2] and in the test on Theba pisana [4] were 11.4 µg/mL (≈ 83.4 µM) and 8.39 µg/mL (≈ 61.6 µM), respectively. In addition, the LD50 in the test on Theba pisana [3] was found to be 60.27 µg.
As for `C=C[C@@](C)(O)CC=C(C)C` [(-)-LINALOOL], in the test on Spodoptera littoralis [1], the outcome was Active.
For `CC1(C)C(=O)[C@@]2(C)CC[C@H]1C2` [(L)-FENCHONE], the result with Spodoptera littoralis [1] was Active. The LC50 with Spodoptera littoralis [2] is 2.27 µg/mL (≈ 14.9 µM); in the test on Theba pisana [4], 2.51 µg/mL (≈ 16.5 µM). Moreover, the LD50 with Theba pisana [3] amounted to 135.36 µg.
For `C=C1C2CCC(C2)C1(C)C` (configuration not stated) [CAMPHENE], in the test with Spodoptera littoralis [1], the outcome was Active. For the same compound, the LC50 was > 100 µg/mL in the test on Spodoptera littoralis [2] and 33.5 µg/mL (≈ 246 µM) in the test on Theba pisana [4]. Moreover, the LD50 in the test on Theba pisana [3] is >1000 µg.
The like results for `CC12CCC(CC1=O)C2(C)C` (configuration not stated) [CAMPHOR] were, in that order, “Active”, 5.61 µg/mL (≈ 36.9 µM), 7.98 µg/mL (≈ 52.4 µM) and 89.15 µg.
A word on the mortality: it is the percentage killed. Consider `CC(C)c1ccc(C=O)cc1` [CUMINALDEHYDE], for which the mortality in the test with Spodoptera littoralis [1] came out at 70%. The LC50 in the test on Spodoptera littoralis [2] and in the test on Theba pisana [4] was > 100 µg/mL throughout. Further, in the test on Theba pisana [3], the LD50 turned out to be 28.37 µg.
On to `CC12CCC(CC1)C(C)(C)O2` [EUCALYPTOL], for which the result in the test on Spodoptera littoralis [1] was Active. Moreover, the LC50 in the test with Spodoptera littoralis [2] was 4.34 µg/mL (≈ 28.1 µM); with Theba pisana [4], 4.17 µg/mL (≈ 27 µM). Moreover, the LD50 with Theba pisana [3] came out at 223.44 µg.
As for `CC(C)=CCC/C(C)=C/CO` [GERANIOL], the mortality in the test on Spodoptera littoralis [1] was determined as 76.7%. The LC50 with Spodoptera littoralis [2] and in the test on Theba pisana [4] was > 100 µg/mL each time. Also, the LD50 in the test on Theba pisana [3] was found to be 42.29 µg.
Take `C=C(C)[C@@H]1CC=C(C)C(=O)C1` [L-CARVONE]: the outcome in the test with Spodoptera littoralis [1] was Active. In addition, the values for the LC50 with Spodoptera littoralis [2] and in the test with Theba pisana [4] were 19.5 µg/mL (≈ 130 µM) and 27 µg/mL (≈ 180 µM), respectively. For the same compound, the LD50 in the test with Theba pisana [3] amounted to 132.18 µg.
On the same counts, the results for `CC1CCC(C(C)C)C(O)C1` (configuration not stated) [MENTHOL] are “Active”, 9.36 µg/mL (≈ 59.9 µM), > 100 µg/mL and 99.44 µg.
As for `CNC(=O)Oc1cc(C)c(SC)c(C)c1` [METHIOCARB], in the test with Theba pisana [3], the LD50 was determined as 188.68 µg.
With `C=CC(=C)CCC=C(C)C` [MYRCENE], the outcome in the test with Spodoptera littoralis [1] was Active. For the same compound, the LC50 is > 100 µg/mL in the test with Spodoptera littoralis [2] and 3.88 µg/mL (≈ 28.5 µM) in the test with Theba pisana [4]. In addition, the LD50 with Theba pisana [3] is >1000 µg.
